# Columns and labels:
# Format in all cases: cell-based
# [1] = test system: hospital-acquired methicillin-resistant Staphylococcus aureus HA-MRSA (ATCC 33591); experiment: microbe, parasite or virus in culture; settings: for MIC: Staphylococcus aureus, 72 h, read-out: MIC, HA-MRSA
# Procedure: (§1) As used herein, the term “minimum inhibitory concentration (MIC)” refers to the lowest concentration of an antimicrobial agent that will inhibit the visible growth of a microorganism after overnight incubation. MIC values against bacteria, for example, the Gram-positive Staphylococcus aureus and Enterococcus faecalis and the Gram-negative Escherichia coli and Pseudomonas aeruginosa were determined by standard methods. See also P. A. Wayne, Methods for Dilution Antimicrobial Tests for Bacteria that Grow Aerobically; Approved Standard, Ninth Edition, 2012, CLSI Document M07-A9, Vol. 32 No. 2, which is incorporated by reference herein in its entirety.
# (§2) For all biological assays, laboratory strains of methicillin-susceptible Staphylococcus aureus MSSA (SH1000), Enterococcus faecalis (OG1RF), Escherichia coli (MC4100), Pseudomonas aeruginosa (PAO1), community-acquired methicillin-resistant Staphylococcus aureus CA-MRSA (USA300-0114), and hospital-acquired methicillin-resistant Staphylococcus aureus HA-MRSA (ATCC 33591) were grown with shaking at 37° C. overnight from freezer stocks in 10 mL of the indicated media.
# (§3) Compounds were serially diluted two-fold from stock solutions to yield twelve test concentrations. Overnight S. aureus, E. faecalis, E. coli, P. aeruginosa, USA300-0114 (CA-MRSA), and ATCC 33591 (HA-MRSA) cultures diluted to ca. 10^6 cfu/mL in MH media and 100 μL were inoculated into each well of a U-bottom 96-well plate (BD Biosciences, BD 351177) containing 100 μL of compound solution. Plates were incubated statically at 37° C. for 72 hours upon which time wells were evaluated visually for bacterial growth. The MIC was determined as the lowest concentration of compound resulting in no bacterial growth visible to the naked eye, based on the majority of three independent experiments. Aqueous DMSO controls were conducted as appropriate for each compound.
# [2] = test system: red blood cells (mechanically defibrinated sheep blood); experiment: Red blood cell (RBC) lysis assay (Lysis20); settings: for Lysis20 (highest concentration at which <20% of RBCs are lysed): sheep RBCs in PBS, 37° C., 1 hour, absorbance 540 nm, Table 1
# Description: These assessments followed standard protocols (Minbiole et al., 2016, Tetrahedron, 72: 3559-3566, Forman et al., 2016, ChemMedChem, 11: 1401-1405, Forman et al., 2016, ChemMedChem, 11: 958-962, Mitchell et al., 2015, ChemBioChem, 16: 2299-2303, Jennings et al., 2015, ACS Inf. Dis, 1: 304-308, Paniak et al., 2014, Bioorg. Med. Chem. Lett, 24: 5824-5828, Ator et al., 2014, Bioorg. Med. Chem. Lett, 24: 3706-3709, Jennings et al., 2014, ChemBioChem, 15: 2211-2215, Black et al., 2014, Bioorg. Med. Chem. Lett, 24, 99-102, Grenier et al., 2012, Bioorg. Med. Chem. Lett, 22: 4055-4058).
# RBC lysis assays were performed on mechanically defibrinated sheep blood (Hemostat Labs: DSB030). 1.5 mL of blood was placed into a microcentrifuge tube and centrifuged at 10,000 rpm for ten minutes. The supernatant was removed and the cells were resuspended with 1 mL of phosphate-buffered saline (PBS). The suspension was centrifuged as previously, the supernatant was removed, and cells were resuspended two more times. The final cell suspension was diluted twentyfold with PBS. The twentyfold suspension dilution was then aliquoted into microcentrifuge tubes containing compound serially diluted in PBS. TritonX (1% by volume) served as a positive control (100% lysis marker) and sterile PBS served as a negative control (0% lysis marker). Samples were then placed in an incubator at 37° C. and shaken at 200 rpm. After 1 hour, the samples were centrifuged at 10,000 rpm for ten minutes. The absorbance of the supernatant was measured with a UV spectrometer at a 540 nm wavelength.
# [3] = test system: Enterococcus faecalis (OG1RF); experiment: Minimum inhibitory concentration (MIC), E. faecalis; settings: MH media, 37° C., 72 hours, visual growth
# Procedure: as §1, §2, §3
# [4] = test system: community-acquired methicillin-resistant Staphylococcus aureus CA-MRSA (USA300-0114); experiment: Minimum inhibitory concentration (MIC), CA-MRSA; settings: MH media, 37° C., 72 hours, visual growth
# Procedure: as §1, §2, §3
# [5] = test system: methicillin-susceptible Staphylococcus aureus MSSA (SH1000); experiment: Minimum inhibitory concentration (MIC), S. aureus; settings: MH media, 37° C., 72 hours, visual growth
# Procedure: as §1, §2, §3
# [6] = test system: Pseudomonas aeruginosa (PAO1); experiment: Minimum inhibitory concentration (MIC), P. aeruginosa; settings: MH media, 37° C., 72 hours, visual growth
# Procedure: as §1, §2, §3
# [7] = test system: Escherichia coli (MC4100); experiment: Minimum inhibitory concentration (MIC), E. coli; settings: MH media, 37° C., 72 hours, visual growth
# Procedure: as §1, §2, §3
Compound,MIC [1],Lysis20 (highest concentration at which <20% of RBCs are lysed) [2],"lysis20 (hemolysis activity) ([2]; sheep RBCs, values restated in text)",MIC [3],MIC [4],MIC [5],MIC [6],MIC [7],"antibacterial resistance (increase in MIC) ([1]; strain not given, Table 1 fits HA-MRSA vs S. aureus)"
"CCCCCCCCCCCC[n+]1ccc(CCCc2cc[n+](CCCCCCCCCCCC)cc2)cc1 [2Pyr-12,12]",0.5 µM,4 μm,4 µM,0.5 µM,0.25 µM,0.5 µM,4 µM,1 µM,–
"CCCCCCCCCC[n+]1cccc(CN(Cc2ccc[n+](CCCCCCCCCC)c2)Cc2ccc[n+](CCCCCCCCCC)c2)c1 [M3Pyr-10,10,10]",0.5 µM,4 μm,–,1 µM,0.5 µM,0.5 µM,2 µM,1 µM,–
"CCCCCCCCCCC[n+]1cccc(CN(Cc2ccc[n+](CCCCCCCCCCC)c2)Cc2ccc[n+](CCCCCCCCCCC)c2)c1 [M3Pyr-11,11,11]",0.5 µM,4 μm,–,1 µM,0.5 µM,0.5 µM,4 µM,1 µM,–
"CCCCCCCC[n+]1cccc(CN(Cc2ccc[n+](CCCCCCCC)c2)Cc2ccc[n+](CCCCCCCC)c2)c1 [M3Pyr-8,8,8]",2 µM,>250 μm,–,8 µM,1 µM,2 µM,32 µM,8 µM,–
"CCCCCCCCCCCC[n+]1cccc(CN(Cc2ccc[n+](CCCCCCCCCCCC)c2)Cc2ccc[n+](CCCCCCCCCCCC)c2)c1 [M3Pyr-12,12,12]",1 µM,4 μm,–,1 µM,0.5 µM,1 µM,8 µM,1 µM,–
"c1cc(CCCc2ccncc2)ccn1 [Compound 2Pyr, 1,3-di-(4-pyridyl)propane, reference compound]",> 250 µM,>250 μm,–,> 250 µM,> 250 µM,> 250 µM,> 250 µM,> 250 µM,–
"c1cc(CN(Cc2ccncc2)Cc2ccncc2)ccn1 [Compound P3Pyr, reference compound]",> 250 µM,125 μm,–,> 250 µM,> 250 µM,> 250 µM,> 250 µM,> 250 µM,–
"CCCCCCCCCCCCCCCCCC[n+]1cccc(CN(Cc2ccc[n+](CCCCCCCCCCCCCCCCCC)c2)Cc2ccc[n+](CCCCCCCCCCCCCCCCCC)c2)c1 [M3Pyr-18,18,18]",4 µM,8 μm,–,32 µM,4 µM,8 µM,> 250 µM,63 µM,–
"CCCCCCCCCC[n+]1ccc(CCCc2cc[n+](CCCCCCCCCC)cc2)cc1 [2Pyr-10,10]",1 µM,16 μm,–,1 µM,0.25 µM,0.5 µM,16 µM,0.5 µM,–
"CCCCCCCCCCCCCCCC[n+]1ccc(CCCc2cc[n+](CCCCCCCCCCCCCCCC)cc2)cc1 [2Pyr-16,16]",8 µM,63 μm,–,8 µM,4 µM,4 µM,> 250 µM,63 µM,–
"CCCCCCCCCCCCC[n+]1ccc(CCCc2cc[n+](CCCCCCCCCCCCC)cc2)cc1 [2Pyr-13,13]",0.5 µM,16 μm,–,0.5 µM,0.25 µM,0.5 µM,8 µM,1 µM,–
"CCCCCCCC[n+]1ccc(CCCc2cc[n+](CCCCCCCC)cc2)cc1 [2Pyr-8,8]",63 µM,125 μm,–,63 µM,16 µM,8 µM,> 250 µM,32 µM,8 fold

# Reference: patent US12459898B2, “Polycationic amphiphiles as antimicrobial agents and methods using same” (Temple University-Of The Commonwealth System of Higher …, priority 2016, dated 2025)
